Active and inactive are the calls of the source. No cut-off for these calls is given here.
How the values were obtained:
[1] = biological target: NACHT, LRR and PYD domains-containing protein 3 (Mus musculus) (UniProt Q8R4B8); assay: (§1) Inhibition of NLRP3 inflammasome activation in LPS-stimulated mouse J774A.1 cells assessed as inhibition of cell pyrolysis at 20 uM incubated for 1 hr followed by ATP addition and measured after 30 mins by Hoechst 33342/propidium iodide staining based high content screening method relative to control; conditions: J774.A1, time 1.5 hrs
[2] = test system: L02; assay: Cytotoxicity against human L-02 cells incubated for 24 hrs by MTT assay; type: cell-based; conditions: L02, 24 h
[3] = biological target: NACHT, LRR and PYD domains-containing protein 3 (Mus musculus) (UniProt Q8R4B8); assay: as §1, with “10” for “20”; conditions: J774.A1, time 1.5 hrs
[4] = biological target: NACHT, LRR and PYD domains-containing protein 3 (Mus musculus, UniProt Q8R4B8); assay: Inhibition of NLRP3 inflammasome activation in LPS-stimulated mouse bone marrow-derived macrophages assessed as reduction in IL-1beta secretion preincubated for 30 mins followed by nigericin addition and measured after 30 mins by ELISA; type: tissue-based, Macrophage
[5] = test system: Mus musculus; assay: Anti-inflammatory activity in C57BL/6 mouse DSS-induced acute ulcerative colitis assessed as reduction in disease index at 10 to 20 mg/kg, ig administered for 7 days; type: functional, organism-based; conditions: dose 10-20 mg/kg, time 7.0 day
[6] = test system: Mus musculus; assay: In vivo inhibition of NLRP3 inflammasome activation in C57BL/6 mouse assessed as reduction in MPO activity at 10 mg/kg, ig administered for 7 days by ELISA; type: functional, organism-based; conditions: time 7.0 day
[7] = test system: Mus musculus; assay: In vivo inhibition of NLRP3 inflammasome activation in C57BL/6 mouse assessed as reduction in MPO activity at 20 mg/kg, ig administered for 7 days by ELISA; type: functional, organism-based; conditions: time 7.0 day
[8] = test system: Mus musculus; assay: Protection against DSS-induced acute ulcerative colitis in C57BL/6 mouse assessed as reduction in adhesion of colon at 20 mg/kg, ig administered for 7 days; type: functional, organism-based; conditions: time 7.0 day
[9] = Toxicity in C57BL/6 mouse assessed as effect on diet at 10 to 20 mg/kg, ig administered for 28 days; type: organism-based; conditions: in vivo, po, 672 h, dose 10-20 mg/kg, time 28 day
[10] = Toxicity in C57BL/6 mouse assessed as effect on activity at 10 to 20 mg/kg, ig administered for 28 days; type: organism-based; conditions: in vivo, po, 672 h, dose 10-20 mg/kg, time 28 day
[11] = Toxicity in C57BL/6 mouse assessed as effect on fur at 10 to 20 mg/kg, ig administered for 28 days; type: organism-based; conditions: in vivo, po, 672 h, dose 10-20 mg/kg, time 28 day
[12] = Toxicity in C57BL/6 mouse assessed as effect on spirit at 10 to 20 mg/kg, ig administered for 28 days; type: organism-based; conditions: in vivo, po, 672 h, dose 10-20 mg/kg, time 28 day
[13] = Toxicity in C57BL/6 mouse assessed as reduction in survival rate at 20 mg/kg, ig administered for 28 days; type: organism-based; conditions: in vivo, po, 672 h, time 28 day

Sequence of NACHT, LRR and PYD domains-containing protein 3 (Mus musculus) (Q8R4B8 whole entry, the tested form may be a part): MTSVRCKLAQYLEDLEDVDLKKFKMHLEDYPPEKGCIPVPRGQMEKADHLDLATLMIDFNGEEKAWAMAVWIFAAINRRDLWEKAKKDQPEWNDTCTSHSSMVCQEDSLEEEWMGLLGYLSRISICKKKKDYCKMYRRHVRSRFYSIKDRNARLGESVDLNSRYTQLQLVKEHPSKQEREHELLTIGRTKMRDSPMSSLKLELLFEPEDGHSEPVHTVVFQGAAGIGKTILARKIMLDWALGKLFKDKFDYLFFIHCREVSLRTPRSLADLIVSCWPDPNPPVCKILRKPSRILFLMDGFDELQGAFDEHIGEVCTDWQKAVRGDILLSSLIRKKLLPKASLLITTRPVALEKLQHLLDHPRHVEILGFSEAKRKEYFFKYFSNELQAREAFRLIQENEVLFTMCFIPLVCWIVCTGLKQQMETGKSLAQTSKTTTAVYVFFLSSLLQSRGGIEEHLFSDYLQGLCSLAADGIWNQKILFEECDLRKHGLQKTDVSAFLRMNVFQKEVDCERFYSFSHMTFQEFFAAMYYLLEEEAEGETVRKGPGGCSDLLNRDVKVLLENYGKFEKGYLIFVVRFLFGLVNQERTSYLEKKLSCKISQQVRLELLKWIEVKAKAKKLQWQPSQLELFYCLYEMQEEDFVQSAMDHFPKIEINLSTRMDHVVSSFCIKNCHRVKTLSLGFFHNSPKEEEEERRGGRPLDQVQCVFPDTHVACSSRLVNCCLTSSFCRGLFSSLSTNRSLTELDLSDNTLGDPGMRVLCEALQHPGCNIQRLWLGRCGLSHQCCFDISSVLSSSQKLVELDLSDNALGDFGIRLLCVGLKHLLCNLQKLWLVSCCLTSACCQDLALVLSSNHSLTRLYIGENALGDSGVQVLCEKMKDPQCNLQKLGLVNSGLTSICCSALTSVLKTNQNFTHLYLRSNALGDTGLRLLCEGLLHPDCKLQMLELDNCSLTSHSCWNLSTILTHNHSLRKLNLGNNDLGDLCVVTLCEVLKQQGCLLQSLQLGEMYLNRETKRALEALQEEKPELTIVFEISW
Sequence of NACHT, LRR and PYD domains-containing protein 3 (Q8R4B8 whole entry, the tested form may be a part): as above

## COc1cc(/C=C/c2ccc(N)cc2)c(/C=C/[N+](=O)[O-])c(OC)c1
[1]
  inhibition: 75.3%
[2]
  IC50: 85.1 µM
[3]
  inhibition: 54.7%
[4]
  IC50: 1.37 µM
[5]
  Activity: Active
[6]
  inhibition: Active
[7]
  inhibition: inactive
[8]
  Activity: Active
[9]
  Activity: Toxic
[10]
  Activity: Toxic
[11]
  Activity: Toxic
[12]
  Activity: Toxic
[13]
  Activity: Toxic
